BindingDB's records for patent US12084420 (Volastra Therapeutics, 2024)
pIC50: −log10 of the molar value.

target: T1, Kinesin-like protein KIF18A (Homo sapiens, UniProt Q8NI77); experiment: Inhibition of KIF18A Microtubule-Dependent ATPase Activity
T1 sequence (Q8NI77 whole entry): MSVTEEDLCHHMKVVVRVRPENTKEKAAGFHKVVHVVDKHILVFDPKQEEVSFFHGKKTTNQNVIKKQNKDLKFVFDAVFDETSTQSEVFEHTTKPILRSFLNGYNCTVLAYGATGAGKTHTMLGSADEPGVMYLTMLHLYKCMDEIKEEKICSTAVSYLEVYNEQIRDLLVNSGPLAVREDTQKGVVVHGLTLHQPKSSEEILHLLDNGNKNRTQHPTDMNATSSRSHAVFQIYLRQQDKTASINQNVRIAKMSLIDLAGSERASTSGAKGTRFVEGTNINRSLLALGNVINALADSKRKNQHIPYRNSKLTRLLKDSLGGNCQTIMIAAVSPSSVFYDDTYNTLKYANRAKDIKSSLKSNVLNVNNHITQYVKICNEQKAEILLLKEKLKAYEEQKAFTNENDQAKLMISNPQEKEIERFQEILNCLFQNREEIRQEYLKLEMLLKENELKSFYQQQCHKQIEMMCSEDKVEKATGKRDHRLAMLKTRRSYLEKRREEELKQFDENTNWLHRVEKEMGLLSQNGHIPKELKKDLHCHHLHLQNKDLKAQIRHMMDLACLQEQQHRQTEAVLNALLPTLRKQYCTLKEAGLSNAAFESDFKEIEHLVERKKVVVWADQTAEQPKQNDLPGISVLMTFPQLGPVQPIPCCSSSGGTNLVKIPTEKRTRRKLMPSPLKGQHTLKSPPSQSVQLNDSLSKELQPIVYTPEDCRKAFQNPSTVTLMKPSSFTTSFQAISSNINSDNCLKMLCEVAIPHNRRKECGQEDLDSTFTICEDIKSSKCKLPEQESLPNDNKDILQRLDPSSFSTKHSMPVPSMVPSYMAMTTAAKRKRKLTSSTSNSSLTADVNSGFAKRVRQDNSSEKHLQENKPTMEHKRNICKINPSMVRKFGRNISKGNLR
Description: Table 9: Test compounds were plated in a 3× dilution scheme in a 384-well plate. […] After incubation at room temperature for 30 min, 2.5 μL of microtubule mix was added [0.2 mg/mL pre-formed microtubules, 2.0 mM ATP in assay buffer], the plate was centrifuged for 30 s and then incubated at 28° C. for 60 min. 5 μL of Promega ADP-Glo Max R1 was added, the plate was centrifuged for 30 s, and the mixture incubated for 4 h at room temperature. 10 μL of Promega ADP-Glo Max R2 was added, the plate centrifuged for 30 s, and incubated for 60 min at room temperature. Luminescence was measured with an Envision plate reader, and % Inhibition was calculated for each well as: ([max−min]−[test−min])/[max−min]. IC50 values were calculated from concentration vs. % Inhibition data via a four-parameter variable slope model.

Row | SMILES | pIC50
1 | O=C(c1cccc(S(=O)(=O)N2CCC(F)(F)CC2)c1)N1CC2(CCCC2)c2cc(NS(=O)(=O)CCO)ccc21 [US12084420, Compound 27] | 7.08
2 | Cn1nc(S(=O)(=O)NC(C)(C)C)cc1C(=O)N1CC2(CCCCC2)c2cc(NS(C)(=O)=O)ccc21 [US12084420, Compound 59] | 6.00
3 | CC(C)(C)NS(=O)(=O)c1csc(C(=O)N2CC3(CCCCC3)c3cc(NS(C)(=O)=O)ccc32)c1 [US12084420, Compound 147] | 7.37
4 | CC(C)(CO)NS(=O)(=O)c1cccc(C(=O)N2CC3(CCC4(CC4)CC3)c3cc(NS(C)(=O)=O)ccc32)c1 [US12084420, Compound 220] | 7.80
5 | CC(C)(C)NS(=O)(=O)c1cc(C(=O)N2CC3(CCCCC3)c3cc(NS(C)(=O)=O)ccc32)cs1 [US12084420, Compound 231] | 8.06
6 | C=C1CCC1NS(=O)(=O)c1cccc(C(=O)N2CC3(CCC4(CC4)CC3)c3cc(NS(C)(=O)=O)ccc32)c1 (configuration not stated) [US12084420, Compound 233] | 7.92

The next lines start with the values.

Row | pIC50 | SMILES
7 | 7.68 | CS(=O)(=O)Nc1ccc2c(c1)C1(CCC3(CC3)CC1)CN2C(=O)c1cccc(S(=O)(=O)N2CCC(C(F)F)C2)c1 (configuration not stated) [US12084420, Compound 247]
8 | 8.00 | CS(=O)(=O)Nc1ccc2c(c1)C1(CCC3(CC3)CC1)CN2C(=O)c1cccc(S(=O)(=O)NC2CC3CC3C2)c1 (configuration not stated) [US12084420, Compound 254]
9 | 7.80 | CCC(C)(C)NS(=O)(=O)c1cccc(C(=O)N2CC3(CCC4(CC4)CC3)c3cc(NS(C)(=O)=O)ccc32)c1 [US12084420, Compound 266]
10 | 6.03 | CS(=O)(=O)Nc1ccc2c(c1)C1(CCC3(CC3)CC1)CN2C(=O)c1cccc(/C=N/N2CCCCC2)c1 [US12084420, Compound 318]
11 | 5.92 | CC(C)(C)NS(=O)(=O)c1cc(C(=O)N2CC3(CCC4(CC4)CC3)c3cc(NS(C)(=O)=O)ccc32)co1 [US12084420, Compound 319]
12 | 7.89 | CC(C)(C)NS(=O)(=O)c1cccc(C(=O)N2CC3(CCC4(CC4)CC3)c3cc(NS(=O)(=O)CCF)ccc32)c1 [US12084420, Compound 365]
